Laboratory results from patent US20240261279A1, “METHOD FOR TREATING LUNG CANCER” (priority 2021, published 2024).

Test system: nuclear protein kinase C-δ
Experiment: confocal-based high-content screening measuring the quantity of nuclear protein kinase C-δ in GR10 cells
Assay type: cell-based
Settings: 24 hours treatment, fluorescence intensity (FIG. 3)
Excerpt: Please refer to FIG. 1. […] To investigate the growth-inhibiting effect of the nuclear protein kinase C-δ inhibitor of the present disclosure on the non-small-cell lung cancer cells resistant to the epidermal growth factor receptor-tyrosine kinase inhibitor, the present experimental example utilizes the screening system shown in FIG. 1 to measure whether the nuclear protein kinase C-δ inhibitor of the present disclosure can inhibit the production of nuclear protein kinase C-δ in the cancer cells.
In the present experimental example, gefitinib-resistant non-small-cell lung cancer cells (gefitinib-resistant 10 cells, hereinafter “GR10 cells”) are used as the cell model. In Example 1 to Example 4, GR10 cells are respectively treated with nintedanib esylate (hereinafter “Nin”), ponatinib (hereinafter “Pon”), regorafenib (hereinafter “Reg”) or cobimetinib (hereinafter “Cob”) for 24 hours, and the quantity of nuclear protein kinase C-δ within the GR10 cells is determined by confocal-based high-content image analysis. On the other hand, the present experimental example further includes Comparative Example 1 and Comparative Example 2. […]
Please refer to FIG. 2A to FIG. 2F and FIG. 3. […] FIG. 3 is a comparative diagram of fluorescence intensity of the GR10 cells after treatment of Example 1 to Example 4, Comparative Example 1 and Comparative Example 2. […]

Cc1ccc(C(=O)Nc2ccc(CN3CCN(C)CC3)c(C(F)(F)F)c2)cc1C#Cc1cnc2cccnn12 [Pon, ponatinib]
concentration at which a great ability to inhibit nuclear protein kinase C-δ is performed: greater than 0.1 μM
